Test [1] has as its target T1, 11β-HSD1 (Homo sapiens, UniProt P28845). The settings on record: for IC50: read-out: IC50 Range.
The target in test [2] is T1, 11β-HSD1. The experiment in a line: biochemical. The settings on record: for IC50: IC50 Range, Biological Test Example 1, microsomes from CHO cells overexpressing human 11β-HSD1; for inhibition at 0.1 µM: read-out: Average % inhibition at 100 nM, Biological Test Example 1.
Where [3] appears, read: Biological Test Example 1, 111.1 nM compound, 0.1111 µM.
[4] abbreviates: Biological Test Example 1, microsomes from CHO cells overexpressing human 11β-HSD1.
Where [5] appears, read: Biological Test Example 1, 100 nM compound, 0.1 µM.
The mark [6] stands for this setting: Biological Test Example 1, 100 nM, 0.1 µM.
The mark [7] stands for this setting: read-out: Average % inhibition at 111.1 nM, Biological Test Example 1, 111.1 nM compound.

Read-outs that look alike come from different tables or passages of the source. A value given as a limit tells only on which side of the number the result lay.

T1 sequence (P28845 whole entry): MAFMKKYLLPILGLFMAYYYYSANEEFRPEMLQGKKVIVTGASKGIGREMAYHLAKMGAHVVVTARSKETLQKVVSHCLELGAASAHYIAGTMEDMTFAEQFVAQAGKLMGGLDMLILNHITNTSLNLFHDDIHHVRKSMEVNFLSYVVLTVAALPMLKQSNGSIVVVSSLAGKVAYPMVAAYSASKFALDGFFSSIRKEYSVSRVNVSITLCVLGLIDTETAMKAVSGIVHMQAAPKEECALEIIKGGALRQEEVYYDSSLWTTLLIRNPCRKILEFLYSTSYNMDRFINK

As usually defined, the IC50 is the point on the concentration scale where inhibition reaches its midpoint. Regarding `C=CC1(c2ccc(F)cc2)CCN([C@@H](C)c2ccccc2)C(=O)O1` (single isomer, unassigned) [EXAMPLE 113 Isomer 2], on 11β-HSD1 [1] (setting [3]), the “Average % inhibition at 111.1 nM” value is on record as 82.6%. Besides, the IC50 at 11β-HSD1 [1] (setting [4]) is < 0.1 µM. Turning to “3-((S)-1-(2′,4′-difluorobiphenyl-4-yl)ethyl)-6-(2-hydroxyethyl)-6-isopropyl-1,3-oxazinan-2-one [EXAMPLE 207 Isomer 1]”, the “Average % inhibition at 100 nM” value at 11β-HSD1 [1] (0.1 µM) was determined as 89.9%. For the same molecule, the half-inhibitory concentration (IC50) at 11β-HSD1 [1] was < 0.1 µM. For the molecule `C[C@@H](c1ccc(-c2ccc(F)cc2F)cc1)N1CCC(CCO)(c2cccs2)OC1=O` (single isomer, unassigned) [EXAMPLE 233 Isomer 2], the “Average % inhibition at 100 nM” value at 11β-HSD1 [1] (setting [5]) is 64.1%. Moreover, the IC50 at 11β-HSD1 [1] (setting [4]) is < 0.1 µM. As for `C[C@@H](c1ccc(-c2ccc(F)cc2)cc1)N1CC[C@](CC(O)CO)(c2ccccc2)OC1=O` (single isomer, unassigned) [EXAMPLE 168 Isomer 2], the “Average % inhibition at 100 nM” value on 11β-HSD1 [1] (setting [5]) is reported as 95.6%. The IC50 at 11β-HSD1 [1] (setting [4]) is < 0.1 µM. Turning to `C=CCCC1(c2ccc(F)cc2)CCN([C@@H](C)c2ccc(OC(F)F)cc2)C(=O)O1` (single isomer, unassigned) [EXAMPLE 323 Isomer 2], the “Average % inhibition at 100 nM” value on 11β-HSD1 [1] (0.1 µM) is listed as 100.9%. In addition, the IC50 at 11β-HSD1 [1] (setting [4]) is < 0.1 µM. `C[C@@H](c1ccc(-c2ccc(F)cc2)cc1)N1CC[C@](CC(O)CNS(C)(=O)=O)(c2ccc(F)cc2)OC1=O` (single isomer, unassigned) [EXAMPLE 277 Isomer 2]: the “Average % inhibition at 100 nM” value on 11β-HSD1 [1] (0.1 µM) stood at 65.6%. For the same molecule, the IC50 at 11β-HSD1 [1] is < 0.1 µM. In the case of `CC(O)C[C@]1(c2ccc(F)cc2)CCN([C@@H](C)c2ccc(Cl)cc2)C(=O)O1` (single isomer, unassigned) [EXAMPLE 203 Isomer 2], at 11β-HSD1 [1] (setting [5]), the “Average % inhibition at 100 nM” value is listed as 93.8%. Moreover, the IC50 at 11β-HSD1 [1] (setting [4]) was < 0.1 µM.

`CC(C[C@]1(c2ccc(F)cc2)CCN([C@@H](C)c2ccc(Br)cc2)C(=O)O1)C(N)=O` (single isomer, unassigned) [EXAMPLE 523 Isomer 2]: at 11β-HSD1 [1] (setting [6]), the “Average % inhibition at 100 nM” value is 85.4%. Further, the IC50 on 11β-HSD1 [1] (setting [4]) is < 0.1 µM. Take `COc1ccc([C@H](C)N2CC[C@](CC(O)CO)(c3ccc(F)cc3)OC2=O)cc1` (single isomer, unassigned) [EXAMPLE 206 Isomer 2]: the “Average % inhibition at 100 nM” value on 11β-HSD1 [1] (setting [5]) was determined as 85.9%. Further, the IC50 on 11β-HSD1 [1] (setting [4]) is < 0.1 µM.

With `CC(C)C1(CCCO)CCN([C@@H](C)c2ccc(Br)cc2)C(=O)O1` (single isomer, unassigned) [EXAMPLE 200 Isomer 2], at 11β-HSD1 [1] (setting [4]), the IC50 was < 0.1 µM. With `CC(O)C[C@]1(c2ccccc2)CCN([C@@H](C)c2ccc(-c3ccc(F)cc3)cc2)C(=O)O1` (single isomer, unassigned) [EXAMPLE 224 Isomer 2], the “Average % inhibition at 100 nM” value at 11β-HSD1 [1] (setting [5]) was determined as 95.6%. In addition, on 11β-HSD1 [1] (setting [4]), the IC50 is < 0.1 µM. For `CC[C@@H](c1ccc(Br)cc1)N1CC[C@](CC(O)CO)(c2ccccc2)OC1=O` (single isomer, unassigned) [EXAMPLE 239 Isomer 2] the same measures were 89.5% and < 0.1 µM. On to `CC(C)C1(CCCO)CCN([C@@H](C)c2ccc(Cl)cc2)C(=O)O1` (single isomer, unassigned) [EXAMPLE 187 Isomer 2], for which the “Average % inhibition at 100 nM” value on 11β-HSD1 [1] (0.1 µM) came to 46.4%. For the same molecule, the IC50 on 11β-HSD1 [1] (setting [4]) is < 0.1 µM. With “(S)-3-((S)-1-(2′,4′-difluorobiphenyl-4-yl)propyl)-6-(4-fluorophenyl)-6-(2-hydroxyethyl)-1,3-oxazinan-2-one [EXAMPLE 175 Isomer 1]”, on 11β-HSD1 [1], the “Average % inhibition at 111.1 nM” value is recorded as 93.7% and the IC50 is < 0.1 µM. `C[C@@H](c1ccc(Br)cc1)N1CCC(CCCO)(c2ccc(F)cc2)OC1=O` (single isomer, unassigned) [EXAMPLE 227 Isomer 2]: the IC50 on 11β-HSD1 [1] (setting [4]) was < 0.1 µM.

For the molecule `C=CCC1(c2ccc(F)cc2)CCN([C@@H](C)c2ccc(C)cc2)C(=O)O1` (single isomer, unassigned) [EXAMPLE 189 Isomer 2], the “Average % inhibition at 100 nM” value on 11β-HSD1 [1] (setting [5]) was 90.1%. Besides, the IC50 on 11β-HSD1 [1] (setting [4]) was < 0.1 µM. On to “(R)-6-(3-hydroxypropyl)-3-((S)-1-(4-methoxyphenyl)ethyl)-6-phenyl-1,3-oxazinan-2-one [EXAMPLE 282 Isomer 1]”, for which, on 11β-HSD1 [1], the “Average % inhibition at 100 nM” value is listed as 94.0% and the IC50 is < 0.1 µM.

On to `CC(O)CC[C@]1(c2ccc(F)cc2)CCN([C@@H](C)c2ccc(F)cc2)C(=O)O1` (single isomer, unassigned) [EXAMPLE 411 Isomer 2], for which the “Average % inhibition at 100 nM” value on 11β-HSD1 [1] (setting [6]) is 93.1%. In addition, the IC50 on 11β-HSD1 [1] (setting [4]) is < 0.1 µM. In the same order, the values of `C[C@@H](c1ccc(Br)cc1)N1CCC(CCO)(c2ccc(F)cc2F)OC1=O` (single isomer, unassigned) [EXAMPLE 365 Isomer 2] are 61.1% and < 0.1 µM. With `C=CCC1(c2ccc(F)cc2)CCN([C@@H](C)c2ccc(OC)cc2)C(=O)O1` (single isomer, unassigned) [EXAMPLE 193 Isomer 2], on 11β-HSD1 [1] (setting [4]), the half-inhibitory concentration (IC50) was < 0.1 µM. With “3-((S)-1-(2′,4′-difluorobiphenyl-4-yl)ethyl)-6-(2-hydroxyethyl)-6-isopropyl-1,3-oxazinan-2-one [EXAMPLE 207 Isomer 2]”, the “Average % inhibition at 100 nM” value on 11β-HSD1 [1] (0.1 µM) is reported as 89.3%. The IC50 at 11β-HSD1 [1] is < 0.1 µM.

`CC(O)C[C@@]1(c2cccs2)CCN([C@@H](C)c2ccc(-c3ccc(F)cc3)cc2)C(=O)O1` (single isomer, unassigned) [EXAMPLE 167 Isomer 2]: the “Average % inhibition at 111.1 nM” value on 11β-HSD1 [1] (setting [3]) worked out at 77.2%. Moreover, on 11β-HSD1 [1] (setting [4]), the IC50 is < 0.1 µM.

For `CC(C)C1(CCCO)CCN([C@@H](C)c2ccc(-c3ccc(F)cc3F)cc2)C(=O)O1` (single isomer, unassigned) [EXAMPLE 212 Isomer 2], the “Average % inhibition at 100 nM” value at 11β-HSD1 [1] (setting [5]) came to 82.6%. Besides, the IC50 on 11β-HSD1 [1] (setting [4]) was < 0.1 µM. In the same order, the values of `C=CCC1(c2ccc(F)cc2)CCN([C@@H](C)c2ccc(Cl)cc2)C(=O)O1` (single isomer, unassigned) [EXAMPLE 196 Isomer 2] are 98.9% and < 0.1 µM. `C[C@@H](c1ccccc1)N1CCC(C)(c2ccccc2)OC1=O` (single isomer, unassigned) [EXAMPLE 82 Isomer 2]: the “Average % inhibition at 111.1 nM” value on 11β-HSD1 [1] (setting [3]) is recorded as 89.2%. Besides, the IC50 on 11β-HSD1 [1] (setting [4]) was < 0.1 µM.

In the case of `C[C@@H](c1ccc(-c2ccc(F)cc2)cc1)N1CC[C@](CC(O)CN(C)S(C)(=O)=O)(c2ccc(F)cc2)OC1=O` (single isomer, unassigned) [EXAMPLE 278 Isomer 2], the “Average % inhibition at 100 nM” value at 11β-HSD1 [1] (setting [5]) is listed as 65.5%. Also, on 11β-HSD1 [1] (setting [4]), the IC50 was < 0.1 µM. Consider `CC(CO)C[C@]1(c2ccc(F)cc2)CCN([C@@H](C)c2ccc(Br)cc2)C(=O)O1` (single isomer, unassigned) [EXAMPLE 577 Isomer 2], for which, on 11β-HSD1 [1] (setting [6]), the “Average % inhibition at 100 nM” value is listed as 94.7%. Besides, the IC50 on 11β-HSD1 [1] (setting [4]) is < 0.1 µM.

Consider `CC(O)C[C@]1(c2ccc(F)cc2)CCN([C@@H](C)c2ccc(-c3ccc(F)cc3F)cc2)C(=O)O1` (single isomer, unassigned) [EXAMPLE 137 Isomer 2], for which, at 11β-HSD1 [1] (setting [4]), the IC50 is < 0.1 µM. With `C[C@@H](C1CCCCC1)N1CC[C@](CC(O)CO)(c2ccc(F)cc2)OC1=O` (single isomer, unassigned) [EXAMPLE 197 Isomer 2], the “Average % inhibition at 100 nM” value on 11β-HSD1 [1] (setting [5]) was 82.1%. Also, the IC50 on 11β-HSD1 [1] (setting [4]) is < 0.1 µM. `CC(O)CC[C@]1(c2ccc(F)cc2)CCN([C@@H](C)c2ccc(Cl)cc2)C(=O)O1` (single isomer, unassigned) [EXAMPLE 383 Isomer 2]: the “Average % inhibition at 100 nM” value on 11β-HSD1 [1] (setting [6]) is 95.3%. The IC50 at 11β-HSD1 [1] (setting [4]) is < 0.1 µM.

A word on the inhibition: it is the change of the read-out against control, counted positive when it falls. Turning to `C[C@@H](c1ccc(Cl)cc1)N1CC[C@](CCC(C)(C)O)(c2ccc(F)cc2)OC1=O` [EXAMPLE 382, (R)-3-((S)-1-(4-chlorophenyl)ethyl)-6-(4-fluorophenyl)-6-(3-hydroxy-3-methylbutyl)-1,3-oxazinan-2-one], the IC50 on 11β-HSD1 [2] was < 0.1 µM. For the same molecule, the inhibition at 0.1 µM on 11β-HSD1 [2] (100 nM) was 81.3%. In the case of `CC1(c2ccccc2)CCN(c2cccc(-c3cccc(C#N)c3)c2)C(=O)O1` (centres unmarked) [EXAMPLE 17, 3′-(6-methyl-2-oxo-6-phenyl-1,3-oxazinan-3-yl)biphenyl-3-carbonitrile], on 11β-HSD1 [2], the IC50 is < 0.1 µM. Also, the inhibition at 0.1111 µM at 11β-HSD1 [2] (setting [7]) came out at 58.8%. Take `O=C1O[C@@](CCO)(c2ccccc2)CCN1c1cccc(-c2ccc(F)cc2)[n+]1[O-]` [EXAMPLE 126, (S)-2-(4-fluorophenyl)-6-(6-(2-hydroxyethyl)-2-oxo-6-phenyl-1,3-oxazinan-3-yl)pyridine 1-oxide]: the IC50 on 11β-HSD1 [2] was < 0.1 µM. On 11β-HSD1 [2] (100 nM compound), the inhibition at 0.1 µM turned out to be 79%. Besides, on 11β-HSD1 [2] (setting [7]), the inhibition at 0.1111 µM amounted to 80.7%.

As to `C=CC[C@@]1(c2ccc(F)cc2)CCN([C@@H](C)c2ccc(Br)cc2)C(=O)O1` (single isomer, unassigned) [EXAMPLE 110 Isomer 1], the IC50 against 11β-HSD1 [2] was < 0.1 µM. Further, the inhibition at 0.1 µM at 11β-HSD1 [2] (100 nM compound) is 90.5%. `CC1(c2ccccc2)CCN(c2ccnc(-c3ccc(F)cc3)n2)C(=O)O1` (centres unmarked) [EXAMPLE 55, 3-(2-(4-fluorophenyl)pyrimidin-4-yl)-6-methyl-6-phenyl-1,3-oxazinan-2-one] registered an IC50 on 11β-HSD1 [2] of 0.1 to 1 µM. The inhibition at 0.1111 µM on 11β-HSD1 [2] (read-out: Average % inhibition at 111.1 nM) came to 3.7%. For `CC1(c2ccccc2)CCN(c2cccc(-c3ccc(C(N)=O)cc3)c2)C(=O)O1` (centres unmarked) [EXAMPLE 44, 3′-(6-methyl-2-oxo-6-phenyl-1,3-oxazinan-3-yl)biphenyl-4-carboxamide], on 11β-HSD1 [2], the IC50 was in the range of 0.1 to 1 µM. For the same molecule, the inhibition at 0.1111 µM at 11β-HSD1 [2] (setting [7]) was 35%.

Regarding `O=C1OC(CCO)(c2ccc(F)cc2)CCN1c1cccc(-c2ccc(F)cc2)n1` (centres unmarked) [EXAMPLE 103, 6-(4-fluorophenyl)-3-(6-(4-fluorophenyl)pyridin-2-yl)-6-(2-hydroxyethyl)-1,3-oxazinan-2-one], the IC50 against 11β-HSD1 [2] was < 0.1 µM. For the same molecule, the inhibition at 0.1111 µM on 11β-HSD1 [2] (setting [7]) is 86.9%.

For the origin of these results see US8575156B2, “Cyclic inhibitors of 11β-hydroxysteroid dehydrogenase 1” (Vitae Pharmaceuticals, Inc., priority 2007, dated 2013).
